EPA's ToxValDB 9.5
Several values for one entry are separate records, joined by “and”; a condition that tells them apart may be missing. Equal entries are not always repeated.

Test system: Rattus norvegicus
Conditions: for LD50 / LC50: acute
[1] = short-term, duration: 28 days, oral, gavage, M, Sprague-Dawley
[2] = subchronic, duration: 13 weeks, oral, gavage, Sprague-Dawley
[3] = reproduction developmental, duration: 83 days, oral, gavage, Sprague-Dawley
[4] = reproduction developmental, duration: 7 days, oral, gavage, F, CD Strain from Charles River

CCCCCCCC/C=C\CCCCCCCC(=O)OC[C@@H](OC(=O)CCCCCCC/C=C\CCCCCCCC)[C@H]1OC[C@H](O)[C@H]1OC(=O)CCCCCCC/C=C\CCCCCCCC [Sorbitan trioleate] was tested, and the LD50 (oral, gavage, Wistar) was > 39800 mg/kg.
With CCCCN(CCCC)c1ccc(C(=O)c2ccccc2C(=O)O)c(O)c1 [2-[4-(Dibutylamino)-2-hydroxybenzoyl]benzoic acid] the LD50 (dermal, Sprague-Dawley) was > 2000 mg/kg, the LD50 (oral, gavage, Sprague-Dawley) was > 5000 mg/kg and the LOAEL (reproduction developmental, duration: 21 weeks, oral, gavage, M, Sprague-Dawley) was 250 mg/kg-day. For the same compound, the LOAEL (reproduction developmental, duration: 21 weeks, oral, gavage, Sprague-Dawley, generation: F1) was 250 mg/kg-day, the LOAEL [1] was 1000 mg/kg-day and the LOAEL [2] was 250 mg/kg-day. It also gave an NOAEL [2] of 50 mg/kg-day.
CCCCCCCCC(=O)Oc1ccccc1S(=O)(=O)[O-].[Na+] [Sodium (nonanoyloxy)benzenesulfonate] was tested, and the LOAEC [3] was 100 mg/kg-day and the NOAEL [3] was 1000 mg/kg-day.
In the case of CC(C)(c1ccccc1)c1ccc(Nc2ccc(C(C)(C)c3ccccc3)cc2)cc1, the LC50 (oral, gavage) is reported as > 10000 mg/kg.
With O=P(CCCl)(OCCCl)OCCCl [Bis(2-chloroethyl) 2-chloroethylphosphonate] the LD50 (oral, gavage, Sprague-Dawley) was 580 mg/kg and 810 mg/kg, the NOAEL (developmental, duration: 14 days, oral, gavage, Sprague-Dawley) was ≤ 600 mg/kg-day and the NOAEL (reproduction developmental, duration: 14 days, oral, gavage, F, Sprague-Dawley) was 400 mg/kg-day.
With CCCCCCC([O-])CCCCCCCCCCC(=O)OC.[Li+] (centres undefined) [Lithium methyl 12-hydroxystearate] the NOAEL (reproduction developmental, duration: 0 days, dermal, non-occlusive, F, Sprague-Dawley) was > 2000 mg/kg-day, the NOAEL (reproduction developmental, duration: 10 weeks, dermal, non-occlusive, M, Fischer 344) was < 500 mg/kg-day and the NOAEL (subchronic, duration: 13 weeks, dermal, non-occlusive, F, Sprague-Dawley) was 500 mg/kg-day.
In the case of N#Cc1nc(Cl)c(Cl)c(Cl)c1Cl [3,4,5,6-Tetrachloropyridine-2-carbonitrile], the LD50 (oral, gavage) is reported as ≥ 1000 mg/kg and ≤ 2000 mg/kg.
With CCCCCCCCCCc1cc(Oc2ccc(S(=O)(=O)O)cc2)ccc1S(=O)(=O)O [Decyl(sulfophenoxy)benzenesulfonic acid] the LD50 (oral, gavage, Fischer 344) was ≥ 1000 mg/kg and ≤ 2000 mg/kg and the LD50 (oral, gavage, Sprague-Dawley) was 3010 mg/kg.
NCCCCCCN [1,6-Hexanediamine] was tested, and the LC50 (inhalation, Crl) was > 0.95 µg/mL, the LD50 (oral, gavage, Crl:CD(SD)) was 1130 mg/kg and 792 mg/kg and the LOAEL (developmental, duration: 7 days, oral, gavage, CD Strain from Charles River) was 184 mg/kg-day. The NOAEL (reproduction developmental, duration: 40 weeks, oral, diet, Charles River COBS CD, Portage Michigan) was 150 mg/kg-day, the LOAEL [4] was 184 mg/kg-day and the NOAEL [4] was 112 mg/kg-day. It also gave an NOAEL (subchronic, duration: 13 weeks, Inhalation, Crl:CD(SD)) of 12.8 mg/m3.
CCCCCCCCCCCCCOC(=O)CCSCCC(=O)OCCCCCCCCCCCCC [Di(tridecyl) thiodipropionate] was tested, and the LD50 (oral) was > 2000 mg/kg.
Work on CC(C)(CO)CO [2,2-Dimethylpropane-1,3-diol] yielded an LD50 (oral) of 3200 mg/kg, an NOAEL (reproduction developmental, oral, Sprague-Dawley, generation: F0) of 1000 mg/kg-day and an NOAEL (reproduction developmental, oral, Sprague-Dawley, generation: F1) of 1000 mg/kg-day. It also gave an NOAEL (reproduction developmental, oral, gavage, Sprague-Dawley) of 100 mg/kg-day and an NOAEL (short-term, duration: 2 weeks, oral, gavage, Wistar) of 1000 mg/kg-day.
CC(C)CCCCCCCOC(=O)CCCCCCCC(=O)OCCCCCCCC(C)C [Diisodecyl azelaate] was tested, and the LD50 (oral, gavage, Wistar) was > 2000 mg/kg.
For CCCCCCC(C)(C)C(=O)OCC1CO1 (centres undefined) [Glycidyl neodecanoate], the LD50 (dermal, Wistar) was > 4000 mg/kg and the LD50 (oral, gavage, Wistar) was > 10000 mg/kg.
OP(O)c1ccccc1 [Phenylphosphinic acid] was tested, and the LD50 (oral, gavage) was 1470 mg/kg and 1710 mg/kg and the NOAEL (subchronic, duration: 31 days, oral, diet) was 960 mg/kg-day.
CC(C)(N)C#N [2-Amino-2-methylpropionitrile] was tested, and the LD50 (oral, Sprague-Dawley) was ≥ 10 mg/kg and ≤ 30 mg/kg and the NOAEL (short-term, duration: 2 weeks, inhalation, M, Sprague-Dawley) was 75.7 mg/m3.
With O=[N+]([O-])c1ccc(C=Cc2ccc([N+](=O)[O-])cc2S(=O)(=O)[O-])c(S(=O)(=O)[O-])c1.[Na+].[Na+] [Disodium 4,4'-dinitro-2,2'-stilbenedisulfonate] the LD50 (oral) was > 16000 mg/kg.
For CCCCCCCCCCOC1CCS(=O)(=O)C1 (centres undefined) [Thiophene, 3-(decyloxy)tetrahydro-, 1,1-dioxide], the NOAEL [1] was 100 mg/kg-day.
O=C(O)c1cccc(C(=O)O)c1 [1,3-Benzenedicarboxylic acid] was tested, and the NOAEL (developmental, duration: 10 days, Inhalation, Sprague-Dawley) was > 10 mg/m3.
O=S(=O)([O-])CCO.[Na+] [Sodium 2-hydroxyethanesulfonate] was tested, and the LD50 (oral, gavage, Wistar) was > 5000 mg/kg.
With COc1cc(NC(=O)C(N=Nc2ccc(-c3ccc(N=NC(C(C)=O)C(=O)Nc4cc(OC)c(Cl)cc4OC)c(Cl)c3)cc2Cl)C(C)=O)c(OC)cc1Cl (centres undefined) [C.I. Pigment Yellow 83] the LD50 (oral, gavage) was > 1750 mg/kg and the NOAEL (chronic, duration: 104 weeks, oral, gavage, Sprague-Dawley) was 630 mg/kg-day.
Compound CC12CCCCC1C(=O)OC2=O (centres undefined) [Methylhexahydrophthalic anhydride] has an LD50 (oral) of 3300 mg/kg.
For C=C(C)CC [2-Methylbutene], the LC50 (inhalation, Wistar) was > 61000 ppm and the NOAEL (reproduction developmental, inhalation, Sprague-Dawley) was 7000 ppm.
In the case of CC(C)(C)c1cccc(C(C)(C)C)c1O [2,6-Di-tert-butylphenol], the LD50 (oral, gavage) is reported as 6290 mg/kg, the LD50 (oral, gavage, Sprague-Dawley) is reported as > 5000 mg/kg and the NOAEL (developmental, oral, gavage, Wistar) is reported as > 750 mg/kg-day. It also gave an NOAEL (reproduction developmental, oral, gavage, Wistar) of 150 mg/kg-day and an NOAEL (short-term, duration: 28 days, oral, gavage, Wistar) of 15 mg/kg-day.
